Reference: US6444683B2, “17-azolyl steroids useful as androgen synthesis inhibitors” (University of Maryland at Baltimore, priority 1997, dated 2002)
Entries after “also recorded” stand apart in the source; their conditions may differ. Like-named read-outs stand apart in the source and are kept apart here.

Experiments:
[1] = target: T1, human prostate 5α-reductase (Homo sapiens, UniProt P31213); assay: Inhibition of human prostate 5α-reductase in BPH microsomes (conversion of [7-3H]-testosterone to DHT); assay type: biochemical
T1 construct: The enzymatic reactions were initiated by addition of human BPH microsomes; from tissue; host or cells: human benign prostatic hyperplasia (BPH) tissue, microsomal fraction
T1 sequence (P31213 1-254): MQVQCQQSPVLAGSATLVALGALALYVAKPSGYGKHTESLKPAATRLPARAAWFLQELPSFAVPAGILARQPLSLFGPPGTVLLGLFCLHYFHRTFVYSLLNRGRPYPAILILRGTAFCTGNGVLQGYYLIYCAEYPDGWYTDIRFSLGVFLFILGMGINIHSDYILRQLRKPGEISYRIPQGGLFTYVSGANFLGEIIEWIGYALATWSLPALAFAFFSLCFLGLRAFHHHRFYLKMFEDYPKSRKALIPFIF
Experimental: […] The ethanol was evaporated to dryness under a gentle stream of air. […] The enzymatic reactions were initiated by addition of human BPH microsomes (about 180 μg of microsomal protein in 500 μl of phosphate buffer) in a total volume of 1.0 ml, and the incubations were performed for 10 min under oxygen in a shaking water bath at 37° C. The incubations were terminated by placing the sample tubes on ice and the addition of ether. Also, [^14C]-DHT (3000 dpm) and cold DHT (50 μg) were added to each tube as an internal standard and visualization marker, respectively. The steroids were extracted with ether and separated by TLC (chloroform:ether, 80:20) and visualized by exposure to iodine vapor. The extracts were analyzed for ^3H and ^14C using a liquid scintillation counter. The percentage conversion of [7-^3H]-testosterone to [^3H]-dihydrotestosterone was calculated and used to determine 5α-reductase activity.

serum DHT levels = conditions: BPH patients; cited from earlier work
[2] = small group of men with advanced prostatic cancer; cited from earlier work
[3] = Stability at room temperature (TLC evidence); assay type: physicochemical
Experimental: The method followed that described for Synthesis Example 14, but using 3β-acetoxy-17-(1H-tetrazol-1-yl)-16-formylandrosta-5,16-diene (Compound 23) (140 mg, 0.3415 mmol). Purification of the crude product by FCC (silica gel, pet. ether/EtOAc (3:1)) gave Compound 26 (45 mg, 34.5%); ^1H NMR (300 MHz, CDCl3): δ 1.08 (3H, s, 18-Me), 1.20 (3H, s, 19-Me), 2.04 (3H, s, 3β-OAc), 4.62 (1H, m, 3α-H), 5.42 (1H, d, J=4.6Hz, 6-H), 6.00 (1H, s, 16-H) and 8.93 (1H, s, 5′-H). […] (TLC evidence) and was used for the subsequent reaction without further characterization.

[4] = tested on: LNCaP human prostatic cancer cell; conditions: cited from earlier work
Human P45017α = target: T2, Human P45017α (Homo sapiens, UniProt P05093); assay: Inhibition of human testicular microsomal P45017α (lyase activity, release of C3H3COOH from [21-3H3]-17α-hydroxypregnenolone); assay type: biochemical
T2 construct: Human testicular microsomes were prepared from human testes; from tissue; host or cells: human testes (untreated prostatic cancer patients undergoing orchidectomy), microsomal fraction
T2 sequence (P05093 1-508): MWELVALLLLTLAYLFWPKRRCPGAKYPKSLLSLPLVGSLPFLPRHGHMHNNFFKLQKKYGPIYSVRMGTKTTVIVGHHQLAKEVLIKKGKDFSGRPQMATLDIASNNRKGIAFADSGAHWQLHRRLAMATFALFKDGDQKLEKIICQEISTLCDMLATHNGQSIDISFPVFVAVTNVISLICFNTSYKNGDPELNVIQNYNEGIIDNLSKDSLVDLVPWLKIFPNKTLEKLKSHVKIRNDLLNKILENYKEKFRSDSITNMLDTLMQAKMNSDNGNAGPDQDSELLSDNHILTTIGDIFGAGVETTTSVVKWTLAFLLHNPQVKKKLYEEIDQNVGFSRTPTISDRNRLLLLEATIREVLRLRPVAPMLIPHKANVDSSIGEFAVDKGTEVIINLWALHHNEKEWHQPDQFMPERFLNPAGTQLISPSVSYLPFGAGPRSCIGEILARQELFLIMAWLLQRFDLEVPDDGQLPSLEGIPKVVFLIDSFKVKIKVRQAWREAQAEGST
Experimental: (§1) The microsomes were stored at −70° C. until assayed. Just before use, the thawed microsomes were diluted with 0.1 M phosphate buffer (pH 7.4) to appropriate concentrations.
(§2) This assay measures only the lyase activity of the P45017α enzyme.
(§3) IC50 values for inhibitors were calculated from the linear regression line in the plot of logit of lyase activity versus log of inhibitor concentration. […] Each inhibitor was examined at three concentrations.

Rat P45017α = target: T3, Rat P45017α (Rattus norvegicus, UniProt P11715); assay: Inhibition of rat testicular microsomal P45017α (lyase activity); assay type: biochemical
T3 sequence (P11715 1-507): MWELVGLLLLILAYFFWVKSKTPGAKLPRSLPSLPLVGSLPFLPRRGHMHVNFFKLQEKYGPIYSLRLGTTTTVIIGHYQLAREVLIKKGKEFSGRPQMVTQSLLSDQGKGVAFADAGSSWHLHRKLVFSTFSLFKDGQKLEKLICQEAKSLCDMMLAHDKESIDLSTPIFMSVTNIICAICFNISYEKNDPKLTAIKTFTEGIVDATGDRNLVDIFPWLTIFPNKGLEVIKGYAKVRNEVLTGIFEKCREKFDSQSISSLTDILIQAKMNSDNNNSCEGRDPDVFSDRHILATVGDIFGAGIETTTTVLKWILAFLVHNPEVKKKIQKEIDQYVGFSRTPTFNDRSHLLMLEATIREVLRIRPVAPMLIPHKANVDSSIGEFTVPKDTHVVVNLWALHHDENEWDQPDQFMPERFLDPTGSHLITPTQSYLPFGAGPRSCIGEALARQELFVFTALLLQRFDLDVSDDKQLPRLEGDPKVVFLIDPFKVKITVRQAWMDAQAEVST
Experimental: as §1, §2, §3

[5] = tested on: LNCaP human prostatic cancer cell; assay: Androgen-stimulated growth of LNCaP human prostatic cancer cells in vitro

CC(C)(C)NC(=O)[C@H]1CC[C@H]2[C@@H]3CC[C@H]4NC(=O)C=C[C@]4(C)[C@H]3CC[C@]12C [Finasteride, reference compound]
IC50 [1]: 33 ± 2 nM | Reduction of serum DHT levels (serum DHT levels): 65-80%

C[C@]12CCC(=O)C(O)=C1CC[C@@H]1[C@@H]2CC[C@]2(C)C(=O)CC[C@@H]12 [Compound 4-OHA, 4-hydroxyandrostene-3,17-dione]
Patients with subjective responses [2]: 80%

CC(=O)O[C@H]1CC[C@@]2(C)C(=CC[C@@H]3[C@@H]2CC[C@]2(C)C(n4cnnn4)=CC[C@@H]32)C1 [Compound 26, 3β-acetoxy-17-(1H-tetrazol-1-yl)androsta-5,16-diene]
Stability at room temp. [3]: not particularly stable at room temp.

C[C@]12CCC(=O)C[C@@H]1CC[C@@H]1[C@@H]2CC[C@]2(C)[C@@H](O)CC[C@@H]12 [DHT, dihydrotestosterone]
Stimulation of proliferation of LNCaP cells compared to control ([4]; 30 pM DHT): 5 fold

C[C@]12CC[C@H](O)CC1=CC[C@@H]1[C@@H]2CC[C@]2(C)C(n3ccnn3)=CC[C@@H]12 [Compound 20, 3β-hydroxy-17-(1H-1,2,3-triazol-1-yl)androsta-5,16-diene]
IC50 (Human P45017α): 13 ± 1 nM | Ki (Human P45017α; Human P45017α Ki): 1.4 nM | Inhibition of human P45017α, in words (Human P45017α; human testicular microsomes): potent inhibitors; also recorded: powerful inhibitors | inhibition at 0.15 µM (Human P45017α; inhibitor 150 nM, substrate 17α-hydroxypregnenolone 10 μM, mean of two determinations, read-out: % Inhibition of human P45017α): 94% | IC50 (Rat P45017α): 10 ± 0.4 nM | IC50 ([1]; human BPH microsomes, mean ± SDM of at least two experiments, read-out: 5α-Reductase IC50): ~10000 nM | inhibition at 5 µM ([5]; Homo sapiens, LNCaP, read-out: Inhibition of DHT-induced growth of LNCaP cells): 100% | inhibition at 2.5 µM ([5]; Homo sapiens, LNCaP, read-out: Inhibition of testosterone-stimulated growth of LNCaP cells): 100% | Toxicity to LNCaP cells ([5]; concentration range 0.5-5.0 μM): nor was toxic to the cells | Antiandrogenic effects ([5]; inferred from inhibition of androgen-stimulated LNCaP growth): strong antiandrogenic effects

C[C@]12CC[C@H]3[C@@H](CCC4=CC(=O)CC[C@@]43C)[C@@H]1CC[C@@H]2O [testosterone]
Increase of growth of LNCaP cells compared to vehicle-treated cells ([4]; 0.1 nM testosterone): 6 fold
